Reference: patent publication US20260265267A1, “NOVEL COMPOUNDS WITH MTORC2-INHIBITORY ACTIVITY AND USES THEREOF” (Aliad Biopharma, priority 2023, published 2026)

Assays:
[1] = target: T1, mTORC1 (Homo sapiens, UniProt P42345); experiment: mTORC1 inhibitory activity in HeLa cells (p70S6K Thr389 phosphorylation, Western blot); format: cell-based; conditions: for remaining activity at 40 µM: read-out: pThr389-S6K/S6K (% control)
T1 construct: the following experiments were conducted in HeLa cells; endogenous in cells; host or cells: HeLa
Experimental: (§1) Specifically, HeLa cells were cultured in a 5% CO2 incubator at 37° C. in DMEM (Dulbecco's Modified Eagles Media) medium supplemented with 10% FBS, penicillin (100 unit/ml), and streptomycin (100 μg/ml). Cultivation was started by seeding 4×10^5 cells in a 100 mm culture dish, and subculture was carried out every 3 days.
(§2) Human cell line HeLa cells were seeded in a 60 mm culture dish at a density of 2×10^5 cells/plate, and cultured for 24 hours. Then, HeLa cells were treated with 70 types of compounds at a concentration of 40 μM each for 9 hours. HeLa cells were washed twice with cold 1×PBS, and then lysed with 100 μl of RIPA buffer (50 mM Tris-HCl (pH7.4), 0.25% sodium deoxycholate, 50 mM NaF, 1% NP-40, 150 mM NaCl, 1 mM β-glycerophosphate, 1 mM PMSF, 1 mM NaVO4, 1 μg/ml leupeptin, 1 μg/ml pepstatin A, 10 nM calyculin A, 10 μg/ml aprotinin, 1 mM EDTA) to hemolyze the cell membrane. Then, the lysates were centrifuged at 12,000 rpm at 4° C. for 10 minutes to collect the supernatant, which is cell lysate. Protein concentration in the cell lysate was determined using the BCA protein assay kit (Thermo Fisher Scientific), and equal amounts of protein were separated by SDS-PAGE.
(§3) Western blot analysis was performed by the following method. […] After washing the membrane three times for 5 minutes each with TBS-T buffer, it was incubated with primary antibodies diluted in TBS-T buffer containing 5% skim milk or 5% BSA overnight at 4° C. Subsequently, the membrane was washed three times for 5 minutes each with TBS-T buffer, and then incubated with secondary antibodies diluted in TBS-T buffer containing 5% skim milk at room temperature for 30 minutes. The membrane was washed five times for 5 minutes each with TBS-T buffer containing 5% skim milk, and then the protein bands bound by the secondary antibody were detected using a chemiluminescence method. The primary antibodies used were Akt (cell signaling, #4691), pAkt(S473) (Cell signaling, #4060), p70S6K (Cell signaling, #S6198), pp70S6K(T389) (cell signaling, #9205S), LC3-II (MBL, #PM036), and the secondary antibodies used were HRP conjugated anti-rabbit (Jackson immunoresearch laboratory, #711-035-152) and HRP conjugated anti-mouse IgG (Jackson immunoresearch laboratory, #515-035-072).
As an mTORC1 activity indicator in HeLa cells, the level of p70S6K Thr389 phosphorylation was selected as a marker, and the level of phosphor-p70S6K (Thr389) signal measured by Western blot analysis was normalized to a level of pan-p70S6K signal, and then expressed as a percentage of the control group treated with only DMSO, which is a vehicle.

[2] = system: LC3-II; experiment: LC3-II formation as indicator of autophagy in HeLa cells (Western blot); format: cell-based, human; conditions: 9 hours; for activity at 40 µM: Homo sapiens, read-out: LC3-II (% control)
Experimental: as §1, §2, §3
LC3-II formation was selected as an indicator of autophagy in HeLa cells, and the LC3-II signal obtained from Western blot analysis was normalized to the pan-Akt signal and the data were expressed as a percentage relative to the control group treated with DMSO only, which is a vehicle.

[3] = target: T2, mTORC2 (Homo sapiens, UniProt P42345); experiment: mTORC2 inhibitory activity in HeLa cells (Akt Ser473 phosphorylation, Western blot); format: cell-based; conditions: for selective inhibition of mTORC2: 40 μM, versus mTORC1; for selective inhibition of mTORC2 / remaining activity at 40 µM: 9 hours; for remaining activity at 40 µM: read-out: pSer473-AKT/AKT (% control); for inhibition at 40 µM: HeLa, 9 h, read-out: reduction in Akt Ser473 phosphorylation compared to the control group
T2 construct: the following experiments were conducted in HeLa cells; endogenous in cells; host or cells: HeLa
Experimental: as §1, §2, §3
As an mTORC2 activity indicator in HeLa cells, the level of Akt Ser473 phosphorylation was selected as a marker, and the phosphor-Akt (Ser473) signal obtained from Western blot analysis was normalized to the pan-Akt signal, and the data were expressed as a percentage relative to the control group treated with DMSO only, which is a vehicle.

[4] = target: T3, mTOR(CD) protein and mLST8 protein (Homo sapiens, UniProt P42345+Q9BVC4); experiment: mTOR(CD)-mLST8 binding assay (co-precipitation, Western blot); conditions: 0.04 to 40 μM
T3 construct: mTOR C-terminal domain (mTOR(CD), a.a. 2179-2549); made in house; host or cells: E. coli (mTOR(CD)); insect Sf9 cells (mLST8, used as a crude extract)
Experimental: mLST8 binds to the mTOR C-terminal domain (mTOR(CD), a.a. 2179-2549). After binding to mTOR, mLST8 interacts with mSin1 and Rictor to complete the formation of the mTORC2 complex, serving as a scaffold. In order to evaluate the inhibitory activity of the compounds synthesized in Examples 1 to 70 on the binding between mLST8 protein and mTOR(CD) protein, the following mTOR(CD)-mLST8 binding assay was performed. Four types of compounds: HN2210, HN2213, HN2221 and HN2313 were used as the experimental target compounds.
Specifically, mTOR(CD) protein was overexpressed in E. coli, labeled with biotin, and then partially purified. mLST8 protein was overexpressed in insect Sf9 cells to obtain mLST8 extract. mTOR(CD)-biotin and mLST8 extract were incubated at 4° C. to induce binding between mTOR(CD)-biotin and mLST8 proteins, and then the mTOR(CD)-biotin and mLST8 complex were co-precipitated using avidin-agarose beads. The relative amounts of precipitated mTOR(CD)-biotin and mLST8 proteins were measured by Western blot analysis, as shown in FIG. 4. Four types of compounds were added during the incubation process of the mTOR(CD)-biotin and mLST8 extract.

[5] = system: LC3-II; experiment: LC3-II levels in primary cultured cerebral neurons; format: cell-based, SD mice; conditions: for effect on LC3-II: 500 nM or 100 nM, time course to 24 hours; for LC3-II (% control): 24 hours
Experimental: Specifically, primary neural cells were cultured from the cerebral cortex of E16 embryos of SD […] with a gestational age 16-day (Orient Bio). The extracted brain was separated into the left and right hemispheres, the meninges were removed, and the brains were treated with trypsin in Ca^2+/Mg^2+-free HBSS solution. […] The cells were seeded at a density of 19,000 cells/cm^2 onto 35 mm culture dishes coated with 50 μg/ml poly-D-Lysine (Sigma, P0899) and 1 μg/ml laminin (Invitrogen, 23017-015), and then maintained in neurobasal complete media supplemented with B27 (Gibco, 17504-044) in a 5% CO2 incubator.
Therefore, the evaluation of mTORC2 inhibitory activity in primary cultured cerebral cells was conducted using the same method as in Experimental Example 1, except that each compound was treated at concentrations of 500 nM or 100 nM for 24 hours. The time-dependent changes in Akt Ser473 phosphorylation, Akt Thr308 phosphorylation, and LC3-II levels were measured by Western blot analysis.

[6] = system: mTORC2; experiment: mTORC2 inhibitory activity in primary cultured cerebral neurons (Akt Ser473 phosphorylation); format: cell-based, SD mice; conditions: for effect on Akt Ser473 phosphorylation / decrease in AKT Ser473 phosphorylation at 24 hours: 500 nM or 100 nM; for effect on Akt Ser473 phosphorylation / pSer473-AKT/AKT (% control): 24 hours
Experimental: Specifically, primary neural cells were cultured from the cerebral cortex of E16 embryos of SD mice with a gestational age 16-day (Orient Bio). The extracted brain was separated into the left and right hemispheres, the meninges were removed, and the brains were treated with trypsin in Ca^2+/Mg^2+-free HBSS solution.
The time-dependent changes in Akt Ser473 phosphorylation, Akt Thr308 phosphorylation, and LC3-II levels were measured by Western blot analysis.

[7] = system: mTORC1; experiment: mTORC1 inhibitory activity in primary cultured cerebral neurons (S6K Thr389 phosphorylation); format: cell-based, SD mice; conditions: for effect on S6K Thr389 phosphorylation: 500 nM or 100 nM, time course to 24 hours (HN2304: from 6 to 24 hours); for pThr389-S6K/S6K (% control): 24 hours
[8] = system: 5×FAD Alzheimer's disease model mice; experiment: Passive avoidance test in 5×FAD mice (long-term memory); format: in vivo; conditions: 5 mg/kg, 14 days / 2 weeks (FIG. 7)
Experimental: In order to evaluate the efficacy of HN2210, HN2213, and HN2313 on Alzheimer's disease-related symptoms, specifically regarding 1) memory and cognitive impairment, 2) amyloid plaques, 3) neurofibrillary tangles (NFTs), and 4) brain inflammation, an in vivo efficacy assessment of HN2210, HN2213 and HN2313 was conducted using 5×FAD Alzheimer's disease model mice. The 5×FAD mice were purchased from Jackson Lab, USA (Cat #034840-JAX) and crossed once with C57bl6 mice to produce F1 heterozygous offspring (Het). The compound was administered via intraperitoneal injection to 6-month-old 5×FAD Het mice, followed by behavioral testing. The normal control mice, which were littermates of the 5×FAD Het mice, were aged to 6 months and received DMSO injection at the same volume.
Specifically, to mice trained to avoid bright light three times daily, an electric foot shock (1 mA, 300 g) was applied for 3 seconds in a dark room at the same time on the next day. After 24 hours, the mice were placed again in the same room, and the avoidance response by light, that is, the time taken to move from the bright room to the dark room was measured. At 24 hours after habituation training, the mice were placed back into the bright room, and the latency time for entering the dark room was recorded over a period of 720 seconds.

Compound | remaining activity at 40 µM ([1]; 9 hours) [%] | activity at 40 µM [2] [%] | selective inhibition of mTORC2 [3] | remaining activity at 40 µM [3] [%] | inhibition at 40 µM [3] [%] | effect on LC3-II [5] | selectivity for mTORC2 over mTORC1 [6] | effect on Akt Ser473 phosphorylation [6] | decrease in AKT Ser473 phosphorylation at 24 hours [6] [%] | AKT Ser473 phosphorylation from 1 to 12 hours [6] | effect on S6K Thr389 phosphorylation [7] | LC3-II (% control) ([5]; 100 nM) | pSer473-AKT/AKT (% control) ([6]; 100 nM) | pThr389-S6K/S6K (% control) ([7]; 100 nM) | other results
O=C1c2cc(F)c(NC3CCCCC3)cc2COc2cc3c(cc21)OCO3 [HN2221, 8-(cyclohexylamino)-9-fluoro[2]benzoxepino[3,4-f]-1,3-benzodioxol-11(6H)-one] | 93 | 119 | selectively inhibit mTORC2 | 77 | > 20 |  |  |  |  |  |  |  |  |  | inhibition of the binding between mTOR(CD) and mLST8 proteins [4]: did not significantly inhibit
COc1cc2c(cc1OC)C(=O)c1cc(Br)ccc1CS2 [HN2304, 9-bromo-2,3-dimethoxydibenzo[b,e]thiepin-11(6H)-one] | 204 |  | selectively inhibit mTORC2 | 44 | > 20 | not affected | selective mTORC2 inhibitors | reduce Akt Ser473 phosphorylation | 17 | significantly increased | markedly increased |  |  |  | LC3-II (% control) ([5]; 500 nM): 82 % control; pSer473-AKT/AKT (% control) ([6]; 500 nM): 82 % control; pThr389-S6K/S6K (% control) ([7]; 500 nM): 504 % control
COc1cc2c(cc1OC)C(=O)c1cc(-c3ccoc3)ccc1CS2 [HN2308, 9-(3-furanyl)-2,3-dimethoxydibenzo[b,e]thiepin-11(6H)-one] | 95 |  | selectively inhibit mTORC2 | 44 |  | no effect | selective mTORC2 inhibitors | reduce Akt Ser473 phosphorylation | 54 | increased AKT Ser473 phosphorylation significantly | no effect | 119 | 46 | 104 | effect on S6K Thr389 phosphorylation ([1]; 40 μM, 9 hours): no effect
COc1ccccc1CNc1cc2c(cc1F)C(=O)c1cc3c(cc1OC2)OCO3 [HN2323, 9-fluoro-8-((2-methoxybenzyl)amino)-[1,3]dioxolo[4′,5′:4,5]benzo[1,2-b]benzo[e]oxepin-11(6H)-one] | 60 | 180 |  | 72 | > 20 | no effect | selective mTORC2 inhibitors | reduce Akt Ser473 phosphorylation | 52 | increased AKT Ser473 phosphorylation significantly | no effect | 135 | 48 | 128 | inhibition at 40 µM ([1]; HeLa, 9 h, read-out: reduction in p70S6K Thr389 phosphorylation compared to the control group): 40%; increase in LC3-II ([2]; 40 μM): 80%
CO[C@H]1C[C@@H]2CC[C@@H](C)[C@@](O)(O2)C(=O)C(=O)N2CCCC[C@H]2C(=O)O[C@H]([C@H](C)C[C@@H]2CC[C@@H](O)[C@H](OC)C2)CC(=O)[C@H](C)/C=C(\C)[C@@H](O)[C@@H](OC)C(=O)[C@H](C)C[C@H](C)/C=C/C=C/C=C/1C [rapamycin, reference compound] |  |  |  |  |  |  |  |  |  |  |  |  |  |  | passive avoidance latency time, % of the normal control level [8]: ~36%
